Source: patent US8927500B2, “Peptidomimetic macrocycles” (Aileron Therapeutics, Inc., priority 2012, dated 2015)
Where a SMILES comes first, the peptide text is derived from it. Bridges are numbered along the chain shown (N, C = ends). [ ]: non-standard residue; d: D form. R8 = C=CCCCCCC[C@@](C)(N)C(=O)O; Chg = N[C@H](C(=O)O)C1CCCCC1; hLeu = CC(C)CC[C@H](N)C(=O)O; S5 = C=CCCC[C@](C)(N)C(=O)O; Nle = CCCC[C@H](N)C(=O)O; Ac3c = NC1(C(=O)O)CC1; Aib = CC(C)(N)C(=O)O

How the values were obtained:
[1] = molecular target: MDM2 (Homo sapiens, UniProt Q00987); assay: Competitive fluorescence polarization assay for MDM2; format: binding; conditions: competitive FP assay, MDM2; for IC50: read-out: IC50 (MDM2); for Ki: read-out: Ki (MDM2)
[2] = system: SJSA-1 cells; assay: Cell lysis by peptidomimetic macrocycles (LDH release); format: cell-based; conditions: 1 h at 37C
[3] = molecular target: T1, MDMX (Homo sapiens, UniProt O15151); assay: Competitive fluorescence polarization assay for MDMX; format: binding; conditions: competitive FP assay; for IC50: read-out: IC50 (MDMX); for Ki: read-out: Ki (MDMX)
T1 sequence (O15151 1-125): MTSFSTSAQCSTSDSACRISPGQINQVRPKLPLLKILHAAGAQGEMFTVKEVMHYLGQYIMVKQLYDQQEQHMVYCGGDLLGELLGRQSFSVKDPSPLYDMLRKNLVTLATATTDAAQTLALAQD

Sequence of MDM2 (Q00987 1-125): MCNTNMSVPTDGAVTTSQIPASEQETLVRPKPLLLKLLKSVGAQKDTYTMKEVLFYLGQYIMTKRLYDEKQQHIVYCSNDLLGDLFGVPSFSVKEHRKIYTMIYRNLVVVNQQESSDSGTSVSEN

CC(=O)N[C@@H](CC(C)C)C(=O)N[C@H](C(=O)N[C@@H](Cc1ccccc1)C(=O)N[C@]1(C)CCCCCCC=CCCC[C@@](C)(C(=O)N[C@@H](CO)C(=O)N[C@@H](C)C(=O)N[C@@H](C)C(N)=O)NC(=O)[C@H](CC(C)C)NC(=O)[C@H](CCC(N)=O)NC(=O)[C@H](C)NC(=O)[C@H](Cc2c[nH]c3ccccc23)NC(=O)[C@H](Cc2ccc(C(=O)O)cc2)NC(=O)[C@H](C)NC1=O)[C@@H](C)O (single isomer, unassigned) [compound 169]
IC50 [1]: < 0.01 µM
Ki [1]: < 0.01 µM
6.25 uM % Lysed cells (1 h LDH) [2]: 2%
25 uM % Lysed cells (1 h LDH) [2]: 3%
50 uM % Lysed cells (1 h LDH) [2]: 7%
IC50 [3]: 0.01 to 0.1 µM
Ki [3]: 0.01 to 0.1 µM

CC[C@H](C)[C@H](NC(=O)[C@H](C)NC(=O)[C@H](C)NC(=O)[C@]1(C)CCCC=CCCCCCC[C@@](C)(NC(=O)[C@H](Cc2ccccc2)NC(=O)[C@@H](NC(=O)[C@H](CC(C)C)NC(C)=O)[C@@H](C)O)C(=O)N[C@@H](C)C(=O)N[C@@H](Cc2ccc(C(=O)O)cc2)C(=O)N[C@@H](Cc2c[nH]c3ccccc23)C(=O)N[C@@H](C)C(=O)N[C@@H](CCC(N)=O)C(=O)N[C@@H](CC(C)C)C(=O)N1)C(=O)N[C@H](C)C(N)=O (single isomer, unassigned) [compound 182]
IC50 [1]: < 0.01 µM
Ki [1]: < 0.01 µM
6.25 uM % Lysed cells (1 h LDH) [2]: 0%
25 uM % Lysed cells (1 h LDH) [2]: 3%
50 uM % Lysed cells (1 h LDH) [2]: 6%
IC50 [3]: 0.1 to 1 µM
Ki [3]: 0.01 to 0.1 µM

CC[C@H](C)[C@H](NC(=O)[C@H](C)NC(=O)[C@H](C)NC(=O)[C@]1(C)CCCC=CCCCCCC[C@@](C)(NC(=O)[C@H](Cc2ccccc2)NC(=O)[C@@H](NC(=O)[C@H](CC(C)C)NC(C)=O)[C@@H](C)O)C(=O)N[C@@H](CCC(=O)O)C(=O)N[C@@H](Cc2ccc(O)cc2)C(=O)N[C@@H](Cc2c[nH]c3ccccc23)C(=O)N[C@@H](C)C(=O)N[C@@H](CCC(N)=O)C(=O)N[C@@H](CC(C)C)C(=O)N1)C(=O)N[C@H](C)C(N)=O (single isomer, unassigned) [compound 217]
IC50 [1]: < 0.01 µM
Ki [1]: < 0.01 µM
6.25 uM % Lysed cells (1 h LDH) [2]: 2%
25 uM % Lysed cells (1 h LDH) [2]: 1%
50 uM % Lysed cells (1 h LDH) [2]: 2%
IC50 [3]: 0.1 to 1 µM
Ki [3]: 0.01 to 0.1 µM

CC(=O)N[C@@H](CC(C)C)C(=O)N[C@H](C(=O)N[C@@H](Cc1ccccc1)C(=O)N[C@]1(C)CCCCCCC=CCCC[C@@](C)(C(=O)N[C@@H](C)C(=O)N[C@@H](C)C(=O)NC(C)(C)C(=O)N[C@@H](C)C(N)=O)NC(=O)[C@H](CC(C)C)NC(=O)[C@H](CCC(N)=O)NC(=O)[C@H](C)NC(=O)[C@H](Cc2c[nH]c3ccccc23)NC(=O)[C@H](Cc2ccc(O)cc2)NC(=O)[C@H](C)NC1=O)[C@@H](C)O (single isomer, unassigned) [compound 232]
IC50 [1]: < 0.01 µM
Ki [1]: < 0.01 µM
6.25 uM % Lysed cells (1 h LDH) [2]: 6%
25 uM % Lysed cells (1 h LDH) [2]: 5%
50 uM % Lysed cells (1 h LDH) [2]: 5%
IC50 [3]: 0.1 to 1 µM
Ki [3]: 0.01 to 0.1 µM

CC[C@H](C)[C@H](NC(=O)[C@H](C)NC(=O)[C@H](C)NC(=O)[C@]1(C)CCCC=CCCCCCC[C@@](C)(NC(=O)[C@H](Cc2ccccc2)NC(=O)[C@@H](NC(=O)[C@H](CC(C)C)NC(C)=O)[C@@H](C)O)C(=O)N[C@@H](CCC(=O)O)C(=O)N[C@@H](Cc2ccc(C(=O)O)cc2)C(=O)N[C@@H](Cc2c[nH]c3cc(Cl)ccc23)C(=O)N[C@@H](C)C(=O)N[C@@H](CCC(N)=O)C(=O)N[C@@H](CC2CCC2)C(=O)N1)C(=O)N[C@H](C)C(N)=O (single isomer, unassigned) [compound 336]
IC50 [1]: < 0.01 µM
Ki [1]: < 0.01 µM
6.25 uM % Lysed cells (1 h LDH) [2]: 0%
25 uM % Lysed cells (1 h LDH) [2]: 0%
50 uM % Lysed cells (1 h LDH) [2]: 0%
IC50 [3]: 0.01 to 0.1 µM
Ki [3]: < 0.01 µM

CCCC[C@H](NC(=O)[C@H](C)NC(=O)[C@H](CO)NC(=O)[C@]1(C)CCCC=CCCCCCC[C@@](C)(NC(=O)[C@H](Cc2ccccc2)NC(=O)[C@@H](NC(=O)[C@H](CC(C)C)NC(C)=O)[C@@H](C)O)C(=O)N[C@@H](C)C(=O)N[C@@H](Cc2ccc(O)cc2)C(=O)N[C@@H](Cc2c[nH]c3ccccc23)C(=O)N[C@@H](C)C(=O)N[C@@H](CCC(N)=O)C(=O)N[C@@H](CC(C)C)C(=O)N1)C(N)=O [compound 3] (Ac-LTF[R8]AYWAQL[S5]SA[Nle]-NH2; staple 4-11)
IC50 [1]: 0.1 to 1 µM
Ki [1]: 0.01 to 0.1 µM
6.25 uM % Lysed cells (1 h LDH) [2]: 1%
25 uM % Lysed cells (1 h LDH) [2]: 1%
50 uM % Lysed cells (1 h LDH) [2]: 3%
IC50 [3]: 0.1 to 1 µM
Ki [3]: 0.01 to 0.1 µM

CC(=O)N[C@@H](CC(C)C)C(=O)N[C@H](C(=O)N[C@@H](Cc1ccccc1)C(=O)N[C@]1(C)CCCCCCC=CCCC[C@@](C)(C(=O)N[C@@H](CO)C(=O)N[C@@H](C)C(=O)N[C@@H](CCC(C)C)C(N)=O)NC(=O)[C@H](CC(C)C)NC(=O)[C@H](CCC(N)=O)NC(=O)[C@H](C)NC(=O)[C@H](Cc2c[nH]c3ccccc23)NC(=O)[C@H](Cc2ccc(O)cc2)NC(=O)[C@H](C)NC1=O)[C@@H](C)O [compound 6] (Ac-LTF[R8]AYWAQL[S5]SA[hLeu]-NH2; staple 4-11)
IC50 [1]: 0.1 to 1 µM
Ki [1]: 0.01 to 0.1 µM
6.25 uM % Lysed cells (1 h LDH) [2]: 1%
25 uM % Lysed cells (1 h LDH) [2]: 1%
50 uM % Lysed cells (1 h LDH) [2]: 1%
IC50 [3]: 0.1 to 1 µM
Ki [3]: 0.01 to 0.1 µM

CC(=O)N[C@@H](CC(C)C)C(=O)N[C@H](C(=O)N[C@@H](Cc1ccccc1)C(=O)N[C@]1(C)CCCCCCC=CCCC[C@@](C)(C(=O)N[C@@H](CO)C(=O)N[C@@H](C)C(=O)N[C@H](C(N)=O)C2CCCCC2)NC(=O)[C@H](CC(C)C)NC(=O)[C@H](CCC(N)=O)NC(=O)[C@H](C)NC(=O)[C@H](Cc2c[nH]c3ccccc23)NC(=O)[C@H](Cc2ccc(O)cc2)NC(=O)[C@H](C)NC1=O)[C@@H](C)O [compound 9] (Ac-LTF[R8]AYWAQL[S5]SA[Chg]-NH2; staple 4-11)
IC50 [1]: 0.1 to 1 µM
Ki [1]: 0.01 to 0.1 µM
6.25 uM % Lysed cells (1 h LDH) [2]: −3%
25 uM % Lysed cells (1 h LDH) [2]: 0%
50 uM % Lysed cells (1 h LDH) [2]: 2%
IC50 [3]: 0.1 to 1 µM
Ki [3]: 0.01 to 0.1 µM

CC(=O)N[C@@H](Cc1ccccc1)C(=O)N[C@]1(C)CCCCCCC=CCCC[C@@](C)(C(=O)N[C@@H](C)C(=O)N[C@@H](C)C(=O)N[C@@H](CC(C)C)C(N)=O)NC(=O)[C@H](CC(C)C)NC(=O)C2(CC2)NC(=O)[C@H](CCC(=O)O)NC(=O)[C@H](Cc2c[nH]c3ccccc23)NC(=O)[C@H](Cc2ccc(O)cc2)NC(=O)[C@H](C)NC1=O [compound 15] (Ac-F[R8]AYWE[Ac3c]L[S5]AAL-NH2; staple 2-9)
IC50 [1]: 0.01 to 0.1 µM
Ki [1]: 0.01 to 0.1 µM
6.25 uM % Lysed cells (1 h LDH) [2]: 1%
25 uM % Lysed cells (1 h LDH) [2]: 2%
50 uM % Lysed cells (1 h LDH) [2]: 5%
IC50 [3]: 0.1 to 1 µM
Ki [3]: 0.01 to 0.1 µM

CC(=O)N[C@@H](Cc1ccccc1)C(=O)N[C@]1(C)CCCCCCC=CCCC[C@@](C)(C(=O)N[C@@H](C)C(=O)N[C@@H](C)C(=O)N[C@@H](Cc2ccccc2)C(N)=O)NC(=O)[C@H](CC(C)C)NC(=O)C2(CC2)NC(=O)[C@H](CCC(=O)O)NC(=O)[C@H](Cc2c[nH]c3ccccc23)NC(=O)[C@H](Cc2ccc(O)cc2)NC(=O)[C@H](C)NC1=O [compound 18] (Ac-F[R8]AYWE[Ac3c]L[S5]AAF-NH2; staple 2-9)
IC50 [1]: 0.01 to 0.1 µM
Ki [1]: < 0.01 µM
6.25 uM % Lysed cells (1 h LDH) [2]: 0%
25 uM % Lysed cells (1 h LDH) [2]: 2%
50 uM % Lysed cells (1 h LDH) [2]: 4%
IC50 [3]: 0.01 to 0.1 µM
Ki [3]: < 0.01 µM

CC[C@H](C)[C@H](NC(=O)[C@H](C)NC(=O)[C@H](C)NC(=O)[C@]1(C)CCCC=CCCCCCC[C@@](C)(NC(=O)[C@H](Cc2ccccc2)NC(C)=O)C(=O)N[C@@H](C)C(=O)N[C@@H](Cc2ccc(O)cc2)C(=O)N[C@@H](Cc2c[nH]c3ccccc23)C(=O)N[C@@H](CCC(=O)O)C(=O)NC2(CC2)C(=O)N[C@@H](CC(C)C)C(=O)N1)C(N)=O [compound 19] (Ac-F[R8]AYWE[Ac3c]L[S5]AAI-NH2; staple 2-9)
IC50 [1]: 0.1 to 1 µM
Ki [1]: 0.01 to 0.1 µM
6.25 uM % Lysed cells (1 h LDH) [2]: 2%
25 uM % Lysed cells (1 h LDH) [2]: 3%
50 uM % Lysed cells (1 h LDH) [2]: 21%
IC50 [3]: 0.01 to 0.1 µM
Ki [3]: 0.01 to 0.1 µM

CC(=O)N[C@@H](Cc1ccccc1)C(=O)N[C@]1(C)CCCCCCC=CCCC[C@@](C)(C(=O)N[C@@H](C)C(=O)N[C@@H](C)C(=O)NC(C)(C)C(N)=O)NC(=O)[C@H](CC(C)C)NC(=O)C2(CC2)NC(=O)[C@H](CCC(=O)O)NC(=O)[C@H](Cc2c[nH]c3ccccc23)NC(=O)[C@H](Cc2ccc(O)cc2)NC(=O)[C@H](C)NC1=O [compound 22] (Ac-F[R8]AYWE[Ac3c]L[S5]AA[Aib]-NH2; staple 2-9)
IC50 [1]: 0.01 to 0.1 µM
Ki [1]: < 0.01 µM
6.25 uM % Lysed cells (1 h LDH) [2]: 0%
25 uM % Lysed cells (1 h LDH) [2]: 0%
50 uM % Lysed cells (1 h LDH) [2]: 0%
IC50 [3]: 0.01 to 0.1 µM
Ki [3]: 0.01 to 0.1 µM
